We go through 53 compounds from patent publication US7115642B2, “Substituted diphenyl isoxazoles, pyrazoles and oxadiazoles useful for treating HCV infection” (priority 2003, dated 2006).

The test system of this test is HCV replicon (5-2 Luc replicon-comprising cells). Description: HCV replicon assay (luciferase). Particulars: 5-2 Luc replicon cells, luciferase readout, read-out: Replicon IC50. The format is cell-based, Hepatitis C virus. The source says:
In one embodiment, the inhibitory activity of the compounds can be confirmed in a replicon assay that assesses the ability of a test compound to block or inhibit HCV replication in replicon cells. One example of a suitable replicon assay is the liver cell-line Huh 7-based replicon assay described in Lohmann et al., 1999, Science 285:110–113. A specific example of this replicon assay which utilizes luciferase translation is provided in the Examples Section. In one embodiment of this assay, the amount of test compound that yields a 50% reduction in translation as compared to a control cell (IC50) may be determined.
The inhibitory activity of certain exemplary compounds of the invention was confirmed using an HCV replicon assay. The HCV replicon can include such features as the HCV 5′ untranslated region including the HCV IRES, the HCV 3′ untranslated region, selected HCV genes encoding HCV polypeptides, selectable markers, and a reporter gene such as luciferase, GFP, etc. In the assay, actively dividing 5-2 Luc replicon-comprising cells (obtained from Ralf Bartenschlager; see Lohmann et al., 1999, Science 285:110–113) were seeded at a density of between about 5,000 and 7,500 cells/well onto 96 well plates (about 90 μl of cells per well) and incubated at 37° C. and 5% CO2 for 24 hours. Then, the test compound (in a volume of about 10 μl) was added to the wells at various concentrations and the cells were incubated for an additional 24 hours before luciferase assay. Briefly, the Bright-Glo reagent was diluted 1:1 with PBS and 100 μl of diluted reagent was added to each well. After 5 min of incubation at room temperature, luciferin emission was quantified with a luminometer. In this assay, the amount of test compound that yielded a 50% reduction in luciferase activity (IC50) was determined.
In TABLE 1, a value of “+” indicates an IC50 of 10 μM or less in the specified assay; a value of “−” indicates an IC50 of greater than 10 μM in the specified assay.
On the technique in general: In antiviral work, replicon cells carry a viral genome segment that copies itself.

The structures appear in SMILES notation. Where two headings read alike, the source gives them in different places.

By IC50 is commonly meant the concentration that inhibits the measured activity by half. With `O=C(NC1CCN(c2cccc(Cl)c2-c2cc(-c3cccc(NC(=O)C(Cl)Cl)c3)on2)CC1)c1ccccn1` [Compound 544], the IC50 was less than 10 µM.
The same measure, in the same setting: the value for `O=C(Nc1cccc(-c2cc(-c3c(Cl)cccc3N3CCNCC3)no2)c1)C(Cl)Cl` [Compound 511] was less than 10 µM.
The same measure, in the same setting: the value for `O=C(Nc1cccc(-c2cc(-c3c(Cl)cccc3N3CCN(C(=O)CCc4ccccc4)CC3)no2)c1)C(Cl)Cl` [Compound 647] was less than 10 µM.
The same measure, in the same setting: the result for `CCNC(=O)NC1CCN(c2cccc(Cl)c2-c2cc(-c3cccc(NC(=O)C(Cl)Cl)c3)on2)C1` (centres unmarked) [Compound 575] reads less than 10 µM; that for `O=C(NC1CCN(c2cccc(Cl)c2-c2cc(-c3cccc(NC(=O)C(Cl)Cl)c3)on2)C1)c1ccccn1` (centres unmarked) [Compound 572], less than 10 µM; that for `COC(=O)C(NC(=O)c1cccc(Cl)c1-c1cc(-c2cccc(NC(=O)C(Cl)Cl)c2)on1)c1ccccc1` (centres unmarked) [Compound 693], greater than 10 µM.
With `CS(=O)(=O)NC1CCN(c2cccc(Cl)c2-c2cc(-c3cccc(NC(=O)C(Cl)Cl)c3)on2)C1` (centres unmarked) [Compound 573], the IC50 is less than 10 µM.
The same measure, in the same setting: the result for `O=C(Nc1cccc(-c2cc(-c3c(Cl)cccc3N3CCN(c4ccccc4)CC3)no2)c1)C(Cl)Cl` [Compound 516] reads less than 10 µM; that for `O=C(Nc1cccc(-c2cc(-c3c(Cl)cccc3N3CCN(c4cccc(Cl)c4)CC3)no2)c1)C(Cl)Cl` [Compound 620], less than 10 µM.
Same read-out and setting: the result for `O=C(Nc1cccc(-c2cc(-c3c(Cl)cccc3N3CCC(NS(=O)(=O)c4ccccc4)CC3)no2)c1)C(Cl)Cl` [Compound 547] reads less than 10 µM.
Take `CN(C(=O)C(Cl)Cl)c1cccc(-c2cc(-c3c(Cl)cccc3Cl)no2)c1` [Compound 57, 2,2-Dichloro-N-[3-[3-(2,6-dichlorophenyl)-5-isoxazolyl]phenyl]-N-methyl Acetamide]: the IC50 was less than 10 µM.
As for `CC(C)(C)OC(=O)N1CCCCC1C(=O)N1CCN(c2cccc(Cl)c2-c2cc(-c3cccc(NC(=O)C(Cl)Cl)c3)on2)CC1` (centres unmarked) [Compound 656], the IC50 is less than 10 µM.
In the case of `O=C(Nc1cccc(-c2cc(-c3c(Cl)cccc3N3CCCN(c4ccccn4)CC3)no2)c1)C(Cl)Cl` [Compound 523], the half-maximal inhibitory concentration (IC50) is less than 10 µM.
As for `CC(=O)N1CCCC(Oc2cccc(Cl)c2-c2cc(-c3cccc(NC(=O)C(Cl)Cl)c3)on2)C1` (centres unmarked) [Compound 585], the IC50 is less than 10 µM.
Take `O=C(Nc1cccc(-c2cc(-c3c(Cl)cccc3OCc3ccncc3)no2)c1)C(Cl)Cl` [Compound 604]: the IC50 was less than 10 µM.
Same read-out and setting: the value for `O=C(Nc1cccc(-c2cc(-c3c(Cl)cccc3N3CCN(Cc4ccccn4)CC3)no2)c1)C(Cl)Cl` [Compound 526] was less than 10 µM; that for `O=C(Nc1cccc(-c2cc(-c3c(Cl)cccc3Oc3cccnc3)no2)c1)C(Cl)Cl` [Compound 559] was less than 10 µM; that for `O=C(Nc1cccc(-c2cc(-c3c(Cl)cccc3N3CCN(C(=O)c4cnccn4)CC3)no2)c1)C(Cl)Cl` [Compound 556] was less than 10 µM.
Same read-out and setting: the result for `CNC(=O)c1cccc(Cl)c1-c1cc(-c2cccc(NC(=O)C(Cl)Cl)c2)on1` [Compound 691] reads less than 10 µM; that for `O=C(Nc1cccc(-c2cc(-c3c(Cl)cccc3N3CCN(C(=O)C4CCCO4)CC3)no2)c1)C(Cl)Cl` (centres unmarked) [Compound 643], less than 10 µM; that for `CN(c1cccc(Cl)c1-c1cc(-c2cccc(NC(=O)C(Cl)Cl)c2)on1)C1CCN(S(C)(=O)=O)CC1` [Compound 583], less than 10 µM.
The same measure, in the same setting: the result for `NC(=O)C1CCN(c2cccc(Cl)c2-c2cc(-c3cccc(NC(=O)C(Cl)Cl)c3)on2)CC1` [Compound 625] reads less than 10 µM; that for `O=C(Nc1cccc(-c2cc(-c3c(Cl)cccc3N3CCN(C(=O)c4cccs4)CC3)no2)c1)C(Cl)Cl` [Compound 554], less than 10 µM; that for `CC(C)(C)OC(=O)COc1cccc(Cl)c1-c1cc(-c2cccc(NC(=O)C(Cl)Cl)c2)on1` [Compound 678], greater than 10 µM.
Consider `O=C(Nc1cccc(-c2cc(-c3ccccc3N3CCOCC3)no2)c1)C(Cl)Cl` [Compound 612], for which the IC50 was less than 10 µM.
Same read-out and setting: the value for `O=C(Nc1cccc(-c2cc(-c3c(Cl)cccc3N3CCN(c4ncccn4)CC3)no2)c1)C(Cl)Cl` [Compound 517] was less than 10 µM.
With `CCOC(=O)C1CCN(c2cccc(Cl)c2-c2cc(-c3cccc(NC(=O)C(Cl)Cl)c3)on2)CC1` [Compound 151, 2,2-Dichloro-N-[3-[3-[2-chloro-6-(4-carboethoxypiperidino)phenyl]-5-isoxazolyl]-phenyl]Acetamide], for the setting “Hepatitis C virus”, the IC50 is greater than 10 µM.
Consider `N#Cc1cccc(C(=O)N2CCN(c3cccc(Cl)c3-c3cc(-c4cccc(NC(=O)C(Cl)Cl)c4)on3)CC2)c1` [Compound 663], for which the IC50 is less than 10 µM.
For `O=C(Nc1cccc(-c2cc(-c3c(Cl)cccc3N3CCN(S(=O)(=O)c4ccccc4)CC3)no2)c1)C(Cl)Cl` [Compound 514], the half-inhibitory concentration (IC50) was less than 10 µM.
Consider `CC(=O)N1CCC(Oc2cccc(Cl)c2-c2cc(-c3cccc(NC(=O)C(Cl)Cl)c3)on2)CC1` [Compound 577], for which the IC50 is less than 10 µM.
Same read-out and setting: the result for `O=C(Nc1cccc(-c2cc(-c3ccccc3N3CCN(c4ccccn4)CC3)no2)c1)C(Cl)Cl` [Compound 614] reads greater than 10 µM; that for `CN(c1cccc(Cl)c1-c1cc(-c2cccc(NC(=O)C(Cl)Cl)c2)on1)C1CCNCC1` [Compound 581], less than 10 µM; that for `O=C(Nc1cccc(-c2cc(-c3c(F)cccc3N3CCN(c4ccccn4)CC3)no2)c1)C(Cl)Cl` [Compound 521], less than 10 µM.
Same read-out and setting: the result for `CC(C)(C)OC(=O)c1cccc(Cl)c1-c1cc(-c2cccc(NC(=O)C(Cl)Cl)c2)on1` [Compound 686] reads less than 10 µM; that for `O=C(Nc1cccc(-c2cc(-c3c(Cl)cccc3N3CCN(Cc4ccncc4)CC3)no2)c1)C(Cl)Cl` [Compound 650], less than 10 µM.
As to `O=C(Nc1cccc(-c2cc(-c3c(Cl)cccc3N3CCN(C(=O)c4ccc(-c5ccccc5)cc4)CC3)no2)c1)C(Cl)Cl` [Compound 557], the IC50 is greater than 10 µM.
Same read-out and setting: the value for `O=C(Nc1cccc(-c2cc(-c3c(Cl)cccc3N3CCN(Cc4cccnc4)CC3)no2)c1)C(Cl)Cl` [Compound 522] was less than 10 µM.
For `O=C(Nc1cccc(-c2cc(-c3c(Cl)cccc3I)no2)c1)C(Cl)Cl` [Compound 677], the concentration for half-maximal inhibition (IC50) is less than 10 µM.
Same read-out and setting: the result for `CCN(CC)c1cccc(Cl)c1-c1cc(-c2cccc(NC(=O)C(Cl)Cl)c2)on1` [Compound 508] reads less than 10 µM.
Still for that read-out and setting: the value for `O=C(Nc1cccc(-c2cc(-c3c(Cl)cccc3OCc3ccccc3)no2)c1)C(Cl)Cl` [Compound 670] was less than 10 µM; that for `O=C(Nc1cccc(-c2cc(-c3c(Cl)cccc3N3CCN(CCN4CCCCC4)CC3)no2)c1)C(Cl)Cl` [Compound 667] was less than 10 µM; that for `O=C(Nc1cccc(-c2cc(-c3c(Cl)cc(OCCN4CCCCC4)cc3Cl)no2)c1)C(Cl)Cl` [Compound 125, 2,2-Dichloro-N-[3-[3-[2,6-dichloro-4-(N-piperidinylethylenoxy)phenyl]-5-isoxazolyl]-phenyl]Acetamide] was less than 10 µM.
Take `O=C(Nc1cccc(-c2cc(-c3c(Cl)cccc3N3CCC(C(=O)N4CCOCC4)CC3)no2)c1)C(Cl)Cl` [Compound 668]: the 50% inhibitory concentration (IC50) is greater than 10 µM.
With `O=C(Nc1cccc(-c2cc(-c3c(Cl)cccc3N3CCN(C(=O)C4CCC4)CC3)no2)c1)C(Cl)Cl` [Compound 641], the IC50 is less than 10 µM.
Same read-out and setting: the value for `O=C(Nc1cccc(-c2cc(-c3c(Cl)cccc3-c3cccnc3)no2)c1)C(Cl)Cl` [Compound 685] was less than 10 µM; that for `O=C(Nc1cc(-c2cc(-c3c(Cl)cccc3Cl)no2)ccc1OCCN1CCOCC1)C(Cl)Cl` [Compound 171, 2,2-Dichloro-N-[3-[3-(2,6-dichlorophenyl)-5-isoxazolyl]-6-(N-morpholino-2-ethyleneoxy)phenyl]Acetamide] was greater than 10 µM; that for `CC(=O)N1CCC(CCOc2cccc(Cl)c2-c2cc(-c3cccc(NC(=O)C(Cl)Cl)c3)on2)CC1` [Compound 645] was less than 10 µM.
Consider `O=C(Nc1cccc(-c2cc(-c3c(Cl)cccc3N3CCN(C(=O)OCc4ccccc4)CC3)no2)c1)C(Cl)Cl` [Compound 622], for which the IC50 is less than 10 µM.
On the same count and under the same terms, the result for `N#CC1(c2ccccc2)CCN(c2cccc(Cl)c2-c2cc(-c3cccc(NC(=O)C(Cl)Cl)c3)on2)CC1` [Compound 618] reads less than 10 µM.
Turning to `CC(=O)NC1CCN(c2cccc(Cl)c2-c2cc(-c3cccc(NC(=O)C(Cl)Cl)c3)on2)C1` (centres unmarked) [Compound 565], the IC50 was less than 10 µM.
Same read-out and setting: the value for `O=C(Nc1cccc(-c2cc(-c3c(Cl)cccc3OCc3cccnc3)no2)c1)C(Cl)Cl` [Compound 605] was less than 10 µM.
Consider `O=C(Nc1cccc(-c2cc(-c3c(Cl)cccc3N3CCN(C(=O)c4cccc([N+](=O)[O-])c4)CC3)no2)c1)C(Cl)Cl` [Compound 660], for which the IC50 was less than 10 µM.
As for `O=C(Nc1cccc(-c2cc(-c3c(Cl)cccc3N3CCN(C(=O)C4CC4)CC3)no2)c1)C(Cl)Cl` [Compound 535], the IC50 was less than 10 µM.
